Laboratory results as given in US20250205231A1, “Tear Film Stability” (priority 2012, published 2025).
Where “and” joins values, the source holds several entries; their conditions need not be identical. Equal values may be shown once. Entries after “also recorded” stand apart in the source; their conditions may differ.

How the values were obtained:
[1] = tested on: patients with dry eye and blepharitis; test: Corneal fluorescein staining (National Eye Institute scoring 0-15), topical statin pilot study; type: in vivo, human
Source text: (§1) Aim: To investigate topical statin as a novel therapy for dry eyes associated with blepharitis. Methods: 10 patients with symptoms and signs of dry eye and blepharitis were enrolled in a prospective pilot study of topical statin therapy over 1 month. The primary outcome measure was corneal fluorescein staining. Results: An Improvement in corneal fluorescein staining by a 3 points from baseline to completion of the trial at week four was found in 6 of 10 patients in the study eye. Subjective dry eye symptoms improved (p=0.005). […] Conclusions: Topical statins are a suitable therapy for patients with dry eye and blepharitis. They can be easily manufactured and could be widely available.
(§2) 10 patients were enrolled and completed the study.
(§3) Patients with • 1) Any symptoms of dry eyes and blepharitis • 2) Any signs of dry eyes: • BUT (tear break up time)≤5 sec, or • Punctate epithelial erosions in at least one eye • 3) Any signs of blepharitis: • Anterior lid margin—grease, skin scales, collarets, frank ulcers, loss of lashes and inflammation • Posterior lid margin—cheesy secretions, blocked meibomian glands >⅓, telangiectasia, meibomitis, notched lid margin and chalaza • 4) Male or female patients greater or equal to 18 years of age • 5) Patients able to give written informed consent and comply with study protocol
(§4) • 1) Subjective • Total symptoms score • Face score (Goto et al 2002) • 2) Objective • a) Tear film break-up time (BUT) • b) Corneal fluorescein staining • b) Blepharitis score • c) Bulbar conjunctival injection • d) Concomitant use of topical therapy
(§5) Patients were evaluated at weeks 1, 2, 3 and 4. However, the primary endpoint was at trial completion (4 weeks). A p value <0.050 was considered statistically significant.

[2] = tested on: patients with dry eye and blepharitis; test: Tear film break-up time (BUT), topical statin pilot study; type: in vivo, human; details: 1 month topical therapy
Source text: as §1, §2
as §3, with “protocol […]” for “protocol”
(§6) Patients were evaluated at weeks 1, 2, 3 and 4. […]

[3] = tested on: patients with dry eye and blepharitis; test: Blepharitis score, topical statin pilot study; type: in vivo, human; design: Blepharitis score: scale not given here
Source text: as §1, §2
as §3, with “protocol […]” for “protocol”
as §6

[4] = tested on: patients with dry eye and blepharitis; test: Schirmer I test, topical statin pilot study; type: in vivo, human; details: baseline to week four
Source text: as §1, §2, §3, §6

[5] = tested on: patients with dry eye and blepharitis; test: Subjective dry eye symptom scores (global and individual), topical statin pilot study; type: in vivo, human; design: Global Symptom score: scale not given here
Source text: as §1, §2, §3, §4, §5

[6] = tested on: patients with dry eye and blepharitis; test: Face score (facial analogue scale, Goto et al 2002), topical statin pilot study; type: in vivo, human; design: Facescale score: scale not given here
Source text: as §1, §2
as §3, with “protocol […]” for “protocol”
as §6

[7] = tested on: patients with dry eye and blepharitis; test: Concomitant use of topical lubricants, topical statin pilot study; type: in vivo, human
Source text: as §2, §4
Prior to the study, 6 patients were using topical lubricants an average of 6 times a day (range 2 to 8. SD 2.3); 4 of these patients were using preservative-free lubricants. At study completion, 2 patients had ceased their topical lubrication, and 3 of the remaining 4 patients had reduced the frequency of lubricant use to an average of 4 times a day (range 3 to […]). […] One patient had had punctal occlusion in the study eye. 4 patients were performing lid massage with hot compresses and 4 were using a cotton bud for lid hygiene, 1 with bicarbonate of soda solution and 2 with shampoo. Patients were asked not to change these regimes during the study period.

[8] = tested on: patients with dry eye and blepharitis; test: Safety evaluation: cataract and adverse reactions; type: in vivo, human
Source text: as §2

[9] = tested on: patients with dry eye and blepharitis; test: Safety evaluation: intraocular pressure (IOP); details: baseline to study completion
[10] = tested on: patients with dry eye and blepharitis; test: Safety evaluation: best-corrected visual acuity (BCVA); details: baseline to study completion
[11] = 1 month, study eye, individual patients 1-10, listed as topical statin

CC(C)c1c(C(=O)Nc2ccccc2)c(-c2ccccc2)c(-c2ccc(F)cc2)n1CC[C@@H](O)C[C@@H](O)CC(=O)O [Atorvastatin]
Corneal fluorescein score ([1]; 1 month, NEI scale 0-15, individual patients 1-10, 50 microM, 8 times a day, listed as topical statin): 1 (2×) and 0 (4×) and 2 (3×) and 4
Patients with improvement in corneal fluorescein staining by three or more points ([1]; of 10 patients, baseline to week four): 6 patients
Patients with corneal fluorescein staining score improved by more than one point ([1]; of the 10 patients): 9 patients
Effect on tear film break-up time (in words) [2]: significantly improved
Effect on blepharitis score (in words) ([3]; 1 month topical therapy): significantly improved
Blepharitis score [3, 11]: 7 (2×) and 5 (3×) and 4 (3×) and 2 (2×)
Change in Schirmer I test result (in words) [4]: no significant change
Effect on subjective dry eye symptoms (in words) ([5]; 1 month topical therapy): improved
Global Symptom score [5, 11]: 5 and 0 (5×) and 3 and 4 and 1 and 2
Change in blurred vision score (in words) ([5]; enrolment to week four): no significant change
Change in discomfort score (in words) ([5]; enrolment to week four): significant improvement
Change in dryness score (in words) ([5]; enrolment to week four): significant improvement
Change in foreign body sensation score (in words) ([5]; enrolment to week four): significant improvement
Change in photophobia score (in words) ([5]; enrolment to week four): no significant change
Change in redness score (in words) ([5]; enrolment to week four): significant improvement
Change in watering score (in words) ([5]; enrolment to week four): significant improvement
Facescale score ([6]; 1 month, facial analogue scale, individual patients 1-10, listed as topical statin): 4 (3×) and 1 and 3 (2×) and 5 (3×) and 2
Change in face score (in words) ([6]; enrolment to week four): significant improvement
Patients who had ceased their topical lubrication at study completion ([7]; of 6 patients using topical lubricants prior to the study): 2 patients
Patients who had reduced the frequency of lubricant use ([7]; of the remaining 4 patients, at study completion): 3 patients
Average frequency of lubricant use at study completion ([7]; range 3 to 6, SD 0.6, prior to the study average 6 times a day): 4 times a day
Adverse events / side-effects ([8]; 1 month topical therapy, both eyes, 10 patients, listed as topical statin): no serious or irreversible side-effects; also recorded: No adverse events were reported
Cataract development ([8]; baseline to study completion): no patient developed cataract
Change in IOP, study eye (in words) [9]: no change
Change in BCVA, fellow eye (in words) [10]: no significant change
Change in BCVA, study eye (in words) [10]: no significant change
